The values below come from US4673671A, “Method for improving the absorption and effectiveness of a catecholamine compound” (SIMES Societa Italiana Medicinali e Sintetici S.p.A., priority 1984, dated 1987).

Data set [1] has as its system renal blood flow and renal vascular resistances. Briefly: Cardiovascular parameters (renal blood flow and renal vascular resistances) in anesthetized dogs, intraduodenal administration. The following applies: for selectivity and duration of renal effect (in words) / duration of effects on renal blood flow and resistances: 5 mg/kg; for renal vasodilating effect (in words): comparison of N-methyldopamine 4-O-dihydrogenphosphate with N-methyldopamine. The format is in vivo, dog. As for the experimental part:
The activity of N-methyldopamine 4-O-dihydrogenphosphate on cardiovascular parameters in anesthetized dogs was compared with that of N-methyldopamine; both compounds were administered by intraduodenal route.

The subject of a further data set is blood pressure. Briefly: Blood pressure in spontaneous hypertensive rats, oral administration. The format is in vivo, rat. An excerpt:
N,N-di-n-propyldopamine 4-O-dihydrogenphosphate reduced blood pressure by 30-35% (p<0.01) when orally administered to spontaneous hypertensive rats at a dose of 0.29 mmoles/kg; the effect lasted five hours while N,N-di-n-propyl dopamine was ineffective at the same dosage and also at 0.58 mmoles/kg.

Another data set deals with urine excretion. In words: Urine excretion in normally hydrated rats, oral administration. The following applies: 0.29 mmoles/kg; for increase of urine excretion: p<0.05. The format is in vivo, rat. An excerpt: These diuretic properties are useful in the therapy of hypertension and cardiac and renal failure.
Where [2] appears, read: anesthetized dogs, i.d., 0.005 mmoles/kg (1.25 mg/kg), n=6.
[3] abbreviates: anesthetized dogs, i.d., 0.04 mmoles/kg (10 mg/kg), n=7, **P <0.01.
Setting [4] is: anesthetized dogs, i.d., 0.035 mmoles/kg (7.1 mg/kg), n=5.

As to `NCCc1ccc(OP(=O)(O)O)c(O)c1` [Dopamine 4-O-dihydrogenphosphate, dopamine 4-O-dihydrogenphosphate], the “selectivity and duration of renal effect (in words)” value in data set [1] is “selective and long lasting”. Further, in data set [1] (5 mg/kg (0.02 mmoles/kg)), the “decrease in renal resistances” value is reported as -15% and the “increase in renal blood flow” value is “+14.5%”.
For the molecule `CCCN(CCC)CCc1ccc(O)c(O)c1` [N,N-di-n-propyl dopamine, N,N-di-n-propyldopamine, reference compound], the “effect on blood pressure (in words)” value with blood pressure (0.29 mmoles/kg) and with blood pressure (0.58 mmoles/kg) was “ineffective” in each case.
On to `CCCN(CCC)CCc1ccc(OP(=O)(O)O)c(O)c1` [N,N-di-n-propyldopamine 4-O-dihydrogenphosphate], for which, in the data set with blood pressure (0.29 mmoles/kg), the “duration of blood pressure reduction” value is given as “five”. The “reduction of blood pressure” value with blood pressure (0.29 mmoles/kg, p<0.01) was 30-35%.
On to `CNCCc1ccc(O)c(OP(=O)(O)O)c1` [N-methyldopamine 3-O-dihydrogenphosphate], for which the “increase of urine excretion” value in the data set with urine excretion is given as 180%.
As to `CNCCc1ccc(OP(=O)(O)O)c(O)c1` [N-methyldopamine 4-O-dihydrogenphosphate], in the data set on urine excretion, the “increase of urine excretion” value is 170%. In data set [1] (anesthetized dogs, i.d.), the “duration of renal vasodilating action” value was “about four”. Also, the “modification of other hemodynamic parameters” value in data set [1] (anesthetized dogs, i.d.) is listed as “without any modification of other hemodynamic parameters”. The “Maximum percentage variation of renal blood flow” value was “+14.2%” in data set [1] (setting [2]); “+18.5%” in data set [1] (anesthetized dogs, i.d., 0.01 mmoles/kg (2.5 mg/kg), n=6, **P <0.01); “+36.4%” in data set [1] (anesthetized dogs, i.d., 0.02 mmoles/kg (5 mg/kg), n=7, **P <0.01); “+31.7%” in data set [1] (setting [3]). Besides, the “Maximum percentage variation of renal vascular resistances” value in data set [1] (setting [2]) was -11.2%; in data set [1] (anesthetized dogs, i.d., 0.01 mmoles/kg (2.5 mg/kg), n=6), -14.1%; in data set [1] (anesthetized dogs, i.d., 0.02 mmoles/kg (5 mg/kg), n=7, *P <0.05) it was -24.5%; in data set [1] (setting [3]), -28.1%. For the same molecule, the “renal vasodilating effect (in words)” value in data set [1] (anesthetized dogs, i.d.) is on record as “improved effectiveness, either in terms of activity or duration of action or selective renal vasodilating action”. For the same molecule, the absorption result in data set [1] (i.d., compared with N-methyldopamine) was “improved absorption”.
Regarding `CCOP(=O)(O)Oc1ccc(CCNC)cc1O` [N-methyldopamine 4-O-ethyl-hydrogenphosphate], in data set [1], the “duration of effects on renal blood flow and resistances” value is recorded as “over 5 hours”. In addition, in data set [1] (5 mg/kg (0.018 mmoles/kg)), the “increase of renal blood flow” value is listed as “+46%” and the “reduction of renal resistances” value is listed as -32%.
As to `CNCCc1ccc(OP(=O)(O)OC)c(O)c1` [N-methyldopamine 4-O-methylhydrogenphosphate], the “duration of effects on renal blood flow and resistances” value in data set [1] was “over 5 hours”. Moreover, in data set [1] (5 mg/kg (0.019 mmole/kg)), the “increase of renal blood flow” value is reported as “+26%” and the “reduction of renal resistances” value is -19%.
As for `CNCCc1ccc(O)c(O)c1` [N-methyldopamine, reference compound], in the data set on urine excretion, the “effect on urine excretion (in words)” value is given as “ineffective”. Besides, in data set [1] (anesthetized dogs, i.d.), the “accompanying effect on blood pressure” value is recorded as “undesired increase of blood pressure”, the “accompanying effect on the heart” value is given as “stimulation of the heart”, the “duration of renal vasodilating action” value is “two” and the “renal vasodilating effect (in words)” value is reported as “smaller effect”. In data set [1] (setting [4]), the “Maximum percentage variation of renal blood flow” value is on record as “+14.9%” and the “Maximum percentage variation of renal vascular resistances” value is reported as -14%.
For the molecule `N[C@@H](CCC(=O)NCCc1ccc(OP(=O)(O)O)c(O)c1)C(=O)O` [N^5-[2-(3,4-dihydroxyphenyl)-ethyl]-L-glutamine 4-O-dihydrogenphosphate], the “selectivity and duration of renal effect (in words)” value in data set [1] was “selective and long lasting”. For the same molecule, in data set [1] (5 mg/kg (0.014 mmoles/kg)), the “decrease in renal resistances” value is on record as -18% and the “increase in renal blood flow” value was “+25%”.
Turning to `NCCc1ccc(O)c(O)c1` [dopamine, 1-(3,4-dihydroxyphenyl)-2-amino-ethane, reference compound], the “effect on renal blood flow and renal resistances (in words)” value in data set [1] (10 mg/kg (0.053 mmoles/kg)) is “ineffective”.
